Broadly, the IC50 is the point on the concentration scale where inhibition reaches its midpoint.

The first test deals with T1, TGFβ R1 (Homo sapiens, UniProt P36897).
T1 sequence (P36897 34-503): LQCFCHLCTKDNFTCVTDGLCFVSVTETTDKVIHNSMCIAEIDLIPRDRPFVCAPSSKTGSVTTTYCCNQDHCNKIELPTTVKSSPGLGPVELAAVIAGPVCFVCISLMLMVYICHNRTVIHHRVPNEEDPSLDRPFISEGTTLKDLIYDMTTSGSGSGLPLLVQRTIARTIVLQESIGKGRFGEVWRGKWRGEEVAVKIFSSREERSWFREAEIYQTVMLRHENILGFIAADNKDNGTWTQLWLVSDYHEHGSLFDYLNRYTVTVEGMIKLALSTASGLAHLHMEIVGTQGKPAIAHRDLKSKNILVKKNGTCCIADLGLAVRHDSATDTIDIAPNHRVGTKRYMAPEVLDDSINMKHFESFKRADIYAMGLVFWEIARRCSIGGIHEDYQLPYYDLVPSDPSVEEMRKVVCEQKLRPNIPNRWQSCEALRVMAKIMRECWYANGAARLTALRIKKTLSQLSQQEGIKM
As to the kind of experiment: TGFβ R1 autophosphorylation protocol (33P-ATP, phosphocellulose filter plate). Format: biochemical. Conditions: 10 uM ATP, 170 nM TGFβ R1, 20 minutes at room temperature, read-out: IC50 for Kinase Inhibition. A digest of the protocol:
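Radiometric autophosphorylation: 170 nM enzyme with compound (≤1% DMSO), 10 uM ATP plus γ-33P-ATP, […] in 20 mM MOPS pH 7, 20 min at room temperature. Reaction stopped on phosphocellulose filter, washed with H3PO4 and ethanol, counted by scintillation.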
As for `COC[C@H]1OC(CCNCCCNC(=O)c2cnccc2Nc2nc(-c3cc(Cl)ccc3F)ncc2OC)[C@@H](OC)[C@@H](OC)[C@@H]1OC` (some centres unmarked) [Compound 96, 4-[2-(5-Chloro-2-fluoro-phenyl)-5-methoxy-pyrimidin-4-ylamino]-N-(3-[2-(3,4,5-trimethoxy-6-methoxymethyl-tetrahydro-pyran-2-yl)-ethylamino]-propyl)-nicotinamide], the IC50 turned out to be 70 nM. Still for that read-out and setting: under `COc1cnc(-c2cc(Cl)ccc2F)nc1Nc1ccncc1C(=O)NCCCN1CCCC1` [Compound 29] stands 30 nM. With `COc1cnc(-c2cc(Cl)ccc2F)nc1Nc1ccncc1C(=O)NCCn1cccc1` [Compound 57, 4-[2-(5-Chloro-2-fluoro-phenyl)-5-methoxy-pyrimidin-4-ylamino]-N-(2-pyrrol-1-yl-ethyl)-nicotinamide], the half-inhibitory concentration (IC50) was 70 nM. For the compound `O=C(NC1CC1)c1cnccc1Nc1nc(-c2cc(Cl)ccc2F)ncc1Br` [Compound 108, 4-[5-Bromo-2-(5-chloro-2-fluoro-phenyl)-pyrimidin-4-ylamino]-N-cyclopropyl-nicotinamide], the IC50 came out at 2500 nM. On to `COc1cnc(-c2cc(Cl)ccc2F)nc1Nc1ccncc1C(=O)NCC1CCCC[C@H]1O` (stereo in doubt) [Compound 31, 4-[2-(5-Chloro-2-fluoro-phenyl)-5-methoxy-pyrimidin-4-ylamino]-N-(2-hydroxy-cyclohexylmethyl)-nicotinamide], for which the IC50 was 370 nM. On the same count and under the same terms, in the case of `COc1cnc(-c2cc(Cl)ccc2F)nc1Nc1ccncc1C(=O)NCCCNC(=O)C(C)C` [Compound 95, 4-[2-(5-Chloro-2-fluoro-phenyl)-5-methoxy-pyrimidin-4-ylamino]-N-(3-isobutylylamino-propyl)-nicotinamide] it was 170 nM; in that of `CC(C)c1cnc(-c2cc(Cl)ccc2F)nc1Nc1ccncc1C(=O)NCCCN1CC[C@@H](O)C1` [Compound 113, 4-[2-(5-Chloro-2-fluoro-phenyl)-5-isopropyl-pyrimidin-4-ylamino]-N-[3-(3-hydroxy-pyrrolidin-1-yl)-propyl]-nicotinamide], 40 nM; in that of `COc1cnc(-c2cc(Cl)ccc2F)nc1Nc1ccncc1C(=O)N1CCNCC1` [Compound 117, {4-[2-(5-Chloro-2-fluoro-phenyl)-5-methoxy-pyrimidin-4-ylamino]-pyridin-3-yl}-piperazin-1-yl-methanone], 6780 nM. The same measure, in the same setting: in the case of `COc1cnc(-c2cc(Cl)ccc2F)nc1Nc1ccncc1C(=O)NCCCNCCC1O[C@H](CO)[C@@H](O)[C@H](O)[C@@H]1O` (some centres unmarked) [Compound 154, 4-[2-(5-Chloro-2-fluoro-phenyl)-5-methoxy-pyrimidin-4-ylamino]-N-{3-[2-(3,4,5-trihydroxy-6-hydroxymethyl-tetrahydro-pyran-2-yl)-ethylamino]-propyl}-nicotinamide] it was 10 nM. Same read-out and setting: under `COc1cnc(-c2cc(Cl)ccc2F)nc1Nc1ccncc1C(=O)NCCOCCO` [Compound 104, 4-[2-(5-Chloro-2-fluoro-phenyl)-5-methoxy-pyrimidin-4-ylamino]-N-[2-(2-hydroxy-ethoxy)-ethyl]-nicotinamide] stands 310 nM; under `COC[C@H]1OC(CCNCCCNC(=O)c2cnccc2Nc2nc(-c3cc(Cl)ccc3F)ncc2OC)[C@H](OC)[C@@H](OC)[C@@H]1OC` (some centres unmarked) [Compound 124, 4-[2-(5-Chloro-2-fluoro-phenyl)-5-methoxy-pyrimidin-4-ylamino]-N-{3-[2-(3,4,5-trimethoxy-6-methoxymethyl-tetrahydro-pyran-2-yl)-ethylamino]-propyl}-nicotinamide], 42 nM. On to `COc1cnc(-c2cc(Cl)ccc2F)nc1Nc1ccncc1C(=O)NCC(F)F` [Compound 36, 4-[2-(5-Chloro-2-fluoro-phenyl)-5-methoxy-pyrimidin-4-ylamino]-N-(2,2-difluoro-ethyl)-nicotinamide], for which the IC50 is 670 nM.

For `COc1cnc(-c2cc(Cl)ccc2F)nc1Nc1ccncc1C(=O)NCCCNC(=O)NC(C)C` [Compound 66, 4-[2-(5-Chloro-2-fluoro-phenyl)-5-methoxy-pyrimidin-4-ylamino]-N-[3-(3-isopropyl-ureido)-propyl]-nicotinamide], the half-inhibitory concentration (IC50) is 270 nM. Still for that read-out and setting: under `COc1cnc(-c2cc(Cl)ccc2F)nc1Nc1ccncc1C(=O)NCCNCC(F)(F)C(F)(F)F` [Compound 102, 4-[2-(5-Chloro-2-fluoro-phenyl)-5-methoxy-pyrimidin-4-ylamino]-N-[2-(2,2,3,3,3-pentafluoro-propylamino)-ethyl]-nicotinamide] stands 70 nM; under `CC(C)c1cnc(-c2cc(Cl)ccc2F)nc1Nc1ccncc1C(=O)NC1CNC1` [Compound 111, N-Azetidin-3-yl-4-[2-(5-chloro-2-fluoro-phenyl)-5-isopropyl-pyrimidin-4-ylamino]-nicotinamide], 20 nM. For `COc1cnc(-c2cc(Cl)ccc2F)nc1Nc1cc[n+]([O-])cc1C(=O)NC1CC1` [Compound 114, 4-[2-(5-Chloro-2-fluoro-phenyl)-5-methoxy-pyrimidin-4-ylamino]-N-cyclopropyl-1-oxy-nicotinamide], the IC50 turned out to be 3080 nM.

The test is the same for the next values; noted with them: 10 uM ATP, 170 nM TGFβ R1, room temperature 20 minutes, read-out: IC50 for Kinase Inhibition.
For the compound `CC(C)c1cnc(-c2cc(Cl)ccc2F)nc1Nc1ccncc1C(=O)NC[C@H](C)OC(=O)[C@H](N)C(C)C` [Compound 207, 2-Amino-3-methyl-butyric acid 2-({4-[2-(5-chloro-2-fluoro-phenyl)-5-isopropyl-pyrimidin-4-ylamino]-pyridine-3-carbonyl}-amino)-1-methyl-ethyl-ester], the IC50 stood at 17 nM. Regarding `CC(C)c1cnc(-c2cc(Cl)ccc2F)nc1Nc1ccncc1C(=O)NCCCN1CCC[C@H]1C(=O)N(C)C` [Compound 171, 4-[2-(5-Chloro-2-fluoro-phenyl)-5-isopropyl-pyrimidin-4-ylamino]-N-[3-(2-dimethylcarbamoyl-pyrrolidin-1-yl)-propyl]-nicotinamide], the IC50 was found to be 5 nM. In the case of `COc1cnc(-c2cc(Cl)ccc2F)nc1Nc1ccncc1C(=O)NCC(C)=O` [Compound 168, 4-[2-(5-Chloro-2-fluoro-phenyl)-5-methoxy-pyrimidin-4-ylamino]-N-(2-oxo-propyl)-nicotinamide], the IC50 worked out at 24 nM. Still for that read-out and setting: in the case of `CC(C)c1cnc(-c2cc(Cl)ccc2F)nc1Nc1ccncc1C(=O)N1CCN[C@H](C)C1` [Compound 228, {4-[2-(5-Chloro-2-fluoro-phenyl)-5-isopropyl-pyrimidin-4-ylamino]-pyridin-3-yl}-(3-methyl-piperazin-1-yl)-methanone] it was 2780 nM. In the case of `O=C(c1cnccc1Nc1nc(-c2cc(Cl)ccc2F)ncc1C1CCCC1)N1CC[C@H](O)C1` [Compound 212, {4-[2-(5-chloro-2-fluoro-phenyl)-5-cyclopentyl-pyrimidin-4-ylamino]-pyridin-3-yl}(3-hydroxy-pyrrolidin-1-yl)-methanone], the half-inhibitory concentration (IC50) was 673 nM. For the compound `COc1cnc(-c2cc(Cl)ccc2F)nc1Nc1ccncc1C(=O)N1CC[C@H](F)C1` [Compound 220, {4-[2-(5-Chloro-2-fluoro-phenyl)-5-methoxy-pyrimidin-4-ylamino]-pyridin-3-yl}-(3-fluoro-pyrrolidin-1-yl)-methanone], the IC50 was 249 nM. Same read-out and setting: under `CC(C)c1cnc(-c2cc(Cl)ccc2F)nc1Nc1ccncc1C(=O)NC[C@H](C)OP(=O)(O)O` [Compound 234, Phosphoric acid mono-[2-{[4-[2-(5-chloro-2-fluoro-phenyl}-5-isopropyl-pyrimidin-4-ylamino]-pyridine-3-carbony}-amino)-1-methyl-ethyl] ester] stands 178 nM.

Source of the values: US20060281763A1, “Carboxamide inhibitors of TGFbeta” (priority 2005, published 2006).
